Test results reported in patent publication US20240336617A1, “Substituted Bimane Compounds and Methods of Use Thereof” (THE TRUSTEES OF THE UNIVERSITY OF PENNSYLVANIA, priority 2023, published 2024).

Legend:
[1] = Fluorescent quantum yield (QY) measurements; type: physicochemical; conditions: absence of αS PFFs (−); 100 μM dye
αS fibrils = target: T1, αS fibrils (Homo sapiens, UniProt P37840); test: Fractionation (total, supernatant, pellet) of αS fibrils with probe; type: binding; conditions: T, S, P fractions
T1 construct: intein-His6 (C, cleaved yes); made in house; host or cells: Escherichia coli BL21

[2] = target: T2, amplified αS fibrils (AFs) from PDD patient brain extracts (Homo sapiens, UniProt P37840); test: Fluorescence measurements with PDD patient cases (lysate, AFs, PFFs); type: binding; conditions: lysate or AFs and probe 1 μM
T2 construct: made in house; host or cells: recombinant αS monomer, seeded with sarkosyl-insoluble extract of human frontal cortex (AD or PDD)
Method: All procedures were performed in accordance with local institutional review board guidelines. Written informed consent for autopsy and analysis of tissue sample data was obtained either from patients themselves or their next of kin. Frozen postmortem human frontal cortex brain tissues from three patients diagnosed with Alzheimer's disease (AD) and three patients diagnosed with Parkinson's disease with dementia (PDD) were selected for sequential extraction of αS aggregates based on a high burden of αS pathology determined by immunohistochemical staining. In brief, 5-10 g of frontal cortical gray matter were homogenized in five volumes (W/V) of high-salt (HS) buffer (50 mM Tris-HCl pH 7.4, 750 mM NaCl, 10 mM NaF, 5 mM EDTA) with protease and protein phosphatase inhibitors, incubated on ice for 20 min and centrifuged at 100,000×g for 30 min. The pellets were then re-extracted with HS buffer, followed by sequential extractions with five volumes of 1% Triton X-100-containing HS buffer and 1% Triton X-100-containing HS buffer with 30% sucrose. The pellets were then re-suspended and homogenized in 1% sarkosyl-containing HS buffer, rotated at room temperature for 2 h or at 4° C. overnight and centrifuged at 100,000×g for 30 min. […] These final sarkosyl-insoluble fractions are referred to as “brain extracts.: The amount of αS in the brain extracts was determined by sandwich ELISA using Syn9027, a mono-clonal antibody (Mab) to αS, and the protein concentrations were examined by bicinchoninic acid (BCA) assay. […]
Brain-derived αS aggregates in extract samples from three AD and three PDD cases (FIG. 38A) were used as seeds for templated aggregation of recombinant αS monomer. […] After seven days of incubation, amplification progress was determined by removing an aliquot and diluting tenfold in DPBS to a final αS concentration of 3.5 μM. […] Equal volumes of supernatant and pellet fractions were analyzed on SDS-PAGE gels and Western blot, with amplified aggregates migrating to the pellet fraction (FIG. 38B). […]

[3] = Viscosity measurements (glycerol mixtures); type: physicochemical
Method: As a representative example, the viscosity of 7k (25 μM, 10 mM stock in DMSO) in glycerol/methanol mixtures were measured, varying the glycerol percentage 0-99%.
Viscosity measurements. As a representative example, we have measured the viscosity of 5k (25 μM, 10 mM stock in DMSO) in glycerol/ethylene glycol (G/EG) mixtures, varying the glycerol percentage 0-90%. Then, the emission spectra were recorded using a PTI QuantaMaster™ 40 fluorescence spectrometer by excitation with 385 nm wavelength.

αS monomer = target: T3, αS monomer (Homo sapiens, UniProt P37840); test: Fluorescence with αS monomer (with and without TMAO); type: binding; conditions: for λmax (λem): 10 μM probe, αS monomer 50 μM, excitation 418 nm; for fluorescence turn on with αS monomer: varied probe or protein concentration
T3 construct: intein-His6 (C, cleaved yes); made in house; host or cells: Escherichia coli BL21
Method: A 1 mM stock solution of 5k in DMSO and a 6.5 M stock solution of trimethylamine N-oxide (TMAO) in Tris buffer at pH 7.4 were prepared. From these stocks, the fluorescence measurements of probe 5k (10 μM) were carried out with and without αS monomer (50 μM) at different concentrations of TMAO (2 M, 4 M and 6 M) diluted with the Tris buffer. The solutions were mixed and then the spectra were measured using a Photon Technology International (PTI) QuantaMaste 40 fluorescence spectrometer with excitation at 418 nm.

Fluorescence QY [1] | increase in fluorescence intensity with increased % glycerol ([3]; ethylene glycol/glycerol mixtures) | λmax (λem) (αS monomer; 2 M TMAO) | λmax (λem) (αS monomer; 4 M TMAO) | λmax (λem) (αS monomer; 6 M TMAO) | increase in fluorescence intensity with % glycerol ([3]; glycerol/MeOH mixtures) | red-shift with % glycerol ([3]; glycerol/MeOH mixtures) | Compound | fractionation of αS fibrils with probe (αS fibrils) | fluorescence detection of PDD amplified fibrils (AFs) [2] | fluorescence turn on with αS monomer (αS monomer)
0.17% |  |  |  |  |  |  | Cc1c(C)n2c(/C=C/c3ccc(N)cc3)c(C)c(=O)n2c1=O [Compound 7j, (E)-3-(4-aminostyryl)-2,5,6-trimethyl-1H,7H-pyrazolo[1,2-a]pyrazole-1,7-dione] |  |  | 
 |  |  |  |  |  |  | Cc1c(C)n2c(/C=C/C=C/c3ccc(N(C)C)cc3)c(C)c(=O)n2c1=O [Compound 7m, 3-((1E,3E)-4-(4-(dimethylamino)phenyl)buta-1,3-dien-1-yl)-2,5,6-trimethyl-1H,7H-pyrazolo[1,2-a]pyrazole-1,7-dione] | retained its fluorescence in the pellet fraction more than 2a | selective increase in fluorescence for PDD AFs compared to AD AFs | 
0.15% | 3.7 fold | 567 nm | 566 nm | 560 nm |  |  | Cc1c(C)n2c(/C=C/c3ccc(N(C)C)cc3)c(C)c(=O)n2c1=O [Compound 7l, (E)-3-(4-(dimethylamino)styryl)-2,5,6-trimethyl-1H,7H-pyrazolo[1,2-a]pyrazole-1,7-dione] | selectively binds to the fibrils | higher sensitivity to PDD derived AFs | occurs only with αS fibrils, not monomers
 |  |  |  |  | > 6 fold | 12 nm | Cc1c(C)n2c(/C=C/c3ccc(N4CCOCC4)cc3)c(C)c(=O)n2c1=O [Compound 7k, (E)-2,3,6-trimethyl-5-(4-morpholinostyryl)-1H,7H-pyrazolo[1,2-a]pyrazole-1,7-dione] |  |  | no significant fluorescence turn on signal
